These results are taken from ChEMBL document CHEMBL3102765, “Unsymmetrical 1,5-diaryl-3-oxo-1,4-pentadienyls and their evaluation as antiparasitic agents” (Bioorg Med Chem, 2014).

A short description of data set [1]: Cytotoxicity against monkey LLC-MK2 cells after 48 hrs by MTT assay. It counts as cell-based, Macaca mulatta. As to conditions: rhesus monkey. Background: Formazan colour is commonly taken as a measure of viable cells.
The test system of data set [2] is Trypanosoma cruzi. Kind of data set: Antiparasitic activity against trypomastigote form of Trypanosoma cruzi Y infected in LLCMK2 cells assessed as parasite lysis after 24 hrs by Pizzi-Brener method. As to conditions: LLC-MK2, 24 h. It counts as functional, organism-based.
The nature of data set [3]: Cytotoxicity against mouse J774A1 cells after 48 hrs by MTT assay. It counts as cell-based, J774.A1.
The next data set concerns Leishmania amazonensis. Kind of data set: Antiparasitic activity against promastigote form of Leishmania amazonensis MHOM/BR/Josefa after 72 hrs by hemocytometry. It counts as functional, organism-based.
Data set [4] deals with Trypanosoma cruzi. The experiment in a line: Antiparasitic activity against epimastigote form of Trypanosoma cruzi Y after 96 hrs by hemocytometry. It counts as functional, organism-based.

As a reminder, the CC50 is the concentration giving 50% cytotoxicity. The EC50 is the concentration needed to bring the measured effect to its halfway point. The IC50 is the concentration at which inhibition is half-maximal. `COc1ccc(/C=C/C(=O)/C(C)=C/c2ccc(N(C)C)cc2)cc1`: the CC50 at 48 h in data set [1] was 285 µM; in data set [3], 34.3 µM. Moreover, the EC50 with Trypanosoma cruzi [2] was over 100 µM. Moreover, the results for the IC50 in the data set on Leishmania amazonensis and with Trypanosoma cruzi [4] were 20.1 µM and over 100 µM, respectively.
On to `C/C(=C\c1ccc(N(C)C)cc1)C(=O)/C=C/c1ccc([N+](=O)[O-])cc1`, for which the CC50 at 48 h was found to be 167 µM in data set [1] and 967 µM in data set [3]. For the same molecule, in the data set on Trypanosoma cruzi [2], the EC50 was over 100 µM. The concentration for half-maximal inhibition (IC50) in the data set on Leishmania amazonensis and with Trypanosoma cruzi [4] was over 100 µM throughout.
In the case of `C/C(=C\c1ccc(N(C)C)cc1)C(=O)/C=C/c1ccc(N(C)C)cc1`, the CC50 at 48 h is 314 µM in data set [1] and 10 µM in data set [3]. For the same molecule, the EC50 in the data set on Trypanosoma cruzi [2] was over 100 µM. The results for the IC50 in the data set on Leishmania amazonensis and with Trypanosoma cruzi [4] were 20.5 µM and 25.1 µM, respectively.
The matching figures for `CC(=O)/C(C)=C/c1ccccc1`: 688 µM, 742 µM, over 100 µM, over 100 µM and over 100 µM.
The like results for `COc1ccc(/C=C(\C)C(C)=O)cc1` were, in that order, 280 µM, 240 µM, over 100 µM, over 100 µM and over 100 µM.
The matching figures for `CC(=O)/C(C)=C/c1ccc([N+](=O)[O-])cc1`: 266 µM, 70.5 µM, over 100 µM, over 100 µM and 82.2 µM.
Turning to `CC(=O)/C(C)=C/c1ccc(N(C)C)cc1`, the CC50 at 48 h in data set [1] came to 150 µM; in data set [3] it was 160 µM. In the data set with Trypanosoma cruzi [2], the EC50 was over 100 µM. Besides, the IC50 with Leishmania amazonensis and in the data set with Trypanosoma cruzi [4] was over 100 µM throughout.
In the case of `C/C(=C\c1ccccc1)C(=O)/C=C/c1ccccc1`, the CC50 at 48 h in data set [1] turned out to be 33.6 µM; in data set [3], 34.5 µM. Moreover, the half-maximal effective concentration (EC50) in the data set on Trypanosoma cruzi [2] is 71.7 µM. The figures for the IC50 in the data set with Leishmania amazonensis and in the data set on Trypanosoma cruzi [4] were 15.3 µM and 15.9 µM, respectively.
The matching figures for `COc1ccc(/C=C/C(=O)/C(C)=C/c2ccccc2)cc1`: 93 µM, 51 µM, over 100 µM, 20.4 µM and 14.3 µM.
Turning to `C/C(=C\c1ccccc1)C(=O)/C=C/c1ccc([N+](=O)[O-])cc1`, the CC50 at 48 h in data set [1] turned out to be 43.3 µM; in data set [3], 26 µM. The EC50 in the data set with Trypanosoma cruzi [2] was 65 µM. Besides, the IC50 in the data set on Leishmania amazonensis was 11.6 µM; in the data set with Trypanosoma cruzi [4], 16.9 µM.
Regarding `C/C(=C\c1ccccc1)C(=O)/C=C/c1ccc(N(C)C)cc1`, the CC50 at 48 h in data set [1] is 53 µM; in data set [3], 20.2 µM. The EC50 in the data set with Trypanosoma cruzi [2] is over 100 µM. The figures for the IC50 with Leishmania amazonensis and in the data set with Trypanosoma cruzi [4] were 20 µM and 13.3 µM, respectively.
Take `COc1ccc(/C=C(\C)C(=O)/C=C/c2ccccc2)cc1`: the figures for the CC50 at 48 h in data set [1] and in data set [3] were 44 µM and 54 µM, respectively. In addition, the half-maximal effective concentration (EC50) in the data set with Trypanosoma cruzi [2] was determined as 73.3 µM. Further, the IC50 in the data set on Leishmania amazonensis was determined as 22.3 µM; with Trypanosoma cruzi [4], 16.7 µM.
For the molecule `COc1ccc(/C=C/C(=O)/C(C)=C/c2ccc(OC)cc2)cc1`, the CC50 at 48 h in data set [1] is 75 µM; in data set [3], 34.1 µM. The EC50 in the data set on Trypanosoma cruzi [2] was over 100 µM. Further, the IC50 amounted to 21.8 µM with Leishmania amazonensis and 23.6 µM in the data set on Trypanosoma cruzi [4].
The like results for `COc1ccc(/C=C(\C)C(=O)/C=C/c2ccc([N+](=O)[O-])cc2)cc1` were, in that order, 20.1 µM, 30 µM, over 100 µM, 14.8 µM and 25.2 µM.
Turning to `COc1ccc(/C=C(\C)C(=O)/C=C/c2ccc(N(C)C)cc2)cc1`, the CC50 at 48 h in data set [1] is 411 µM; in data set [3] it was 36.2 µM. Moreover, the EC50 in the data set on Trypanosoma cruzi [2] was over 100 µM. Also, the IC50 came out at 18 µM in the data set with Leishmania amazonensis and 21.3 µM with Trypanosoma cruzi [4].
The matching figures for `C/C(=C\c1ccc([N+](=O)[O-])cc1)C(=O)/C=C/c1ccccc1`: 264 µM, 47.3 µM, 17.5 µM, 13.4 µM and 3.5 µM.
The like results for `COc1ccc(/C=C/C(=O)/C(C)=C/c2ccc([N+](=O)[O-])cc2)cc1` were, in that order, 172 µM, 36.6 µM, 73.3 µM, 15.5 µM and 10 µM.
The matching figures for `C/C(=C\c1ccc([N+](=O)[O-])cc1)C(=O)/C=C/c1ccc([N+](=O)[O-])cc1`: 32.5 µM, 43 µM, 15.4 µM, 3.4 µM and 1.8 µM.
For the molecule `C/C(=C\c1ccc([N+](=O)[O-])cc1)C(=O)/C=C/c1ccc(N(C)C)cc1`, the CC50 at 48 h in data set [1] is 25.9 µM; in data set [3] it was 24.7 µM. Also, the EC50 in the data set on Trypanosoma cruzi [2] was over 100 µM. Further, the IC50 turned out to be 12 µM in the data set on Leishmania amazonensis and 14 µM in the data set with Trypanosoma cruzi [4].
The matching figures for `C/C(=C\c1ccc(N(C)C)cc1)C(=O)/C=C/c1ccccc1`: 191 µM, 28.5 µM, 78.3 µM, 21.5 µM and 24.1 µM.
As for `C[C@@H]1[C@H](O)[C@@H](C)/C=C/C=C/C=C/C=C/C=C/C=C/C=C/[C@H](O[C@@H]2O[C@H](C)[C@@H](O)[C@H](N)[C@@H]2O)C[C@@H]2O[C@](O)(C[C@@H](O)C[C@@H](O)[C@H](O)CC[C@@H](O)C[C@@H](O)CC(=O)O[C@H]1C)C[C@H](O)[C@H]2C(=O)O` [AMPHOTERICIN B], half-maximal inhibition with Leishmania amazonensis (IC50) required 0.06 µM.
As for `O=C(Cn1ccnc1[N+](=O)[O-])NCc1ccccc1` [BENZNIDAZOLE], the CC50 at 48 h in data set [1] was determined as 615 µM.
